Columns and labels:
[1] = molecular target: Cyclin-dependent kinase 7 (Homo sapiens, UniProt P50613); experiment: Selectivity interaction (Kinase panel (KiNativ target engagement assay in Jurkat cells)) EUB0001635a CDK7; format: cell-based; settings: Selectivity number of off-targets 0.0, Selectivity number of targets 233.0, Source Knowledge https://www.sciencedirect.com/science/article/pii/S2451945619300674?via%3Dihub, at 1 µM
[2] = molecular target: Ephrin type-A receptor 7 (Homo sapiens) (UniProt Q15375); experiment: Selectivity interaction (KinomeScan (DiscoverX)) EUB0000666a EPHA7; settings: at 10 µM
Sequence of Ephrin type-A receptor 7 (Homo sapiens) (Q15375 28-998 limits assumed): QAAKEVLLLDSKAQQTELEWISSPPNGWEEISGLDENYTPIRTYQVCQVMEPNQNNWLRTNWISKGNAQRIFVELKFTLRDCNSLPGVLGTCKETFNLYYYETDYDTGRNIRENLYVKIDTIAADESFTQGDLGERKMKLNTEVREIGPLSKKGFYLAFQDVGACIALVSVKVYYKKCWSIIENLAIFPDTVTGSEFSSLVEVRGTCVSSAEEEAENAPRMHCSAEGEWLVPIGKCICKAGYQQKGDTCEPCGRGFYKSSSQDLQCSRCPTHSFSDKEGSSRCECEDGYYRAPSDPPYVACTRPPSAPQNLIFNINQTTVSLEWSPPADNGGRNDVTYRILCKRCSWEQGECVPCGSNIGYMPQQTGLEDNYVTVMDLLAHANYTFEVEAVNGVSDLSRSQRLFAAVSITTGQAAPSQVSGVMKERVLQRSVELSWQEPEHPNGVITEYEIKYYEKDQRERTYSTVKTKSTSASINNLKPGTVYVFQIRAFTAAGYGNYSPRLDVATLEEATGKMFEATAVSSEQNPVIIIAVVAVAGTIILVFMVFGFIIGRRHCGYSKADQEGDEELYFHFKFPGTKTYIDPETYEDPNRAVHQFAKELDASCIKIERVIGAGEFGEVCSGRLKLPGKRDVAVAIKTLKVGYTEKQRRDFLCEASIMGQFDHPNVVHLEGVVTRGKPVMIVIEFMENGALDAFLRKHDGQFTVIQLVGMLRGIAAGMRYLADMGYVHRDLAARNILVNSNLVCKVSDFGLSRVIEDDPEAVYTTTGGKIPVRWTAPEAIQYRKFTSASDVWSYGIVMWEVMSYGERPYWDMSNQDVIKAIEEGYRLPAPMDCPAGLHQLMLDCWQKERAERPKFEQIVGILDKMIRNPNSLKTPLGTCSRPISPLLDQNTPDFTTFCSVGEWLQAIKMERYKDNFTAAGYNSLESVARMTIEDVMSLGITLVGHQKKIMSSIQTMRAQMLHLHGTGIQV

[3] = molecular target: Casein kinase I isoform gamma-2 (Homo sapiens) (UniProt P78368); experiment: Selectivity interaction (KinomeScan (DiscoverX)) EUB0000666a CSNK1G2; settings: at 10 µM
[4] = molecular target: Ribosomal protein S6 kinase alpha-4 (Homo sapiens) (UniProt O75676); settings: at 10 µM
[5] = molecular target: Histone-lysine N-methyltransferase SETD2 (Homo sapiens) (UniProt Q9BYW2); experiment: Selectivity interaction (Methyltransferase screen (radiometric assays, panel of 8 PRMTs, 21 protein lysine methyltransferases, 3 DNA methyltransferases, and one RNA methyltransferase)) EUB0000271b SETD2
Sequence of Histone-lysine N-methyltransferase SETD2 (Homo sapiens) (Q9BYW2 whole entry): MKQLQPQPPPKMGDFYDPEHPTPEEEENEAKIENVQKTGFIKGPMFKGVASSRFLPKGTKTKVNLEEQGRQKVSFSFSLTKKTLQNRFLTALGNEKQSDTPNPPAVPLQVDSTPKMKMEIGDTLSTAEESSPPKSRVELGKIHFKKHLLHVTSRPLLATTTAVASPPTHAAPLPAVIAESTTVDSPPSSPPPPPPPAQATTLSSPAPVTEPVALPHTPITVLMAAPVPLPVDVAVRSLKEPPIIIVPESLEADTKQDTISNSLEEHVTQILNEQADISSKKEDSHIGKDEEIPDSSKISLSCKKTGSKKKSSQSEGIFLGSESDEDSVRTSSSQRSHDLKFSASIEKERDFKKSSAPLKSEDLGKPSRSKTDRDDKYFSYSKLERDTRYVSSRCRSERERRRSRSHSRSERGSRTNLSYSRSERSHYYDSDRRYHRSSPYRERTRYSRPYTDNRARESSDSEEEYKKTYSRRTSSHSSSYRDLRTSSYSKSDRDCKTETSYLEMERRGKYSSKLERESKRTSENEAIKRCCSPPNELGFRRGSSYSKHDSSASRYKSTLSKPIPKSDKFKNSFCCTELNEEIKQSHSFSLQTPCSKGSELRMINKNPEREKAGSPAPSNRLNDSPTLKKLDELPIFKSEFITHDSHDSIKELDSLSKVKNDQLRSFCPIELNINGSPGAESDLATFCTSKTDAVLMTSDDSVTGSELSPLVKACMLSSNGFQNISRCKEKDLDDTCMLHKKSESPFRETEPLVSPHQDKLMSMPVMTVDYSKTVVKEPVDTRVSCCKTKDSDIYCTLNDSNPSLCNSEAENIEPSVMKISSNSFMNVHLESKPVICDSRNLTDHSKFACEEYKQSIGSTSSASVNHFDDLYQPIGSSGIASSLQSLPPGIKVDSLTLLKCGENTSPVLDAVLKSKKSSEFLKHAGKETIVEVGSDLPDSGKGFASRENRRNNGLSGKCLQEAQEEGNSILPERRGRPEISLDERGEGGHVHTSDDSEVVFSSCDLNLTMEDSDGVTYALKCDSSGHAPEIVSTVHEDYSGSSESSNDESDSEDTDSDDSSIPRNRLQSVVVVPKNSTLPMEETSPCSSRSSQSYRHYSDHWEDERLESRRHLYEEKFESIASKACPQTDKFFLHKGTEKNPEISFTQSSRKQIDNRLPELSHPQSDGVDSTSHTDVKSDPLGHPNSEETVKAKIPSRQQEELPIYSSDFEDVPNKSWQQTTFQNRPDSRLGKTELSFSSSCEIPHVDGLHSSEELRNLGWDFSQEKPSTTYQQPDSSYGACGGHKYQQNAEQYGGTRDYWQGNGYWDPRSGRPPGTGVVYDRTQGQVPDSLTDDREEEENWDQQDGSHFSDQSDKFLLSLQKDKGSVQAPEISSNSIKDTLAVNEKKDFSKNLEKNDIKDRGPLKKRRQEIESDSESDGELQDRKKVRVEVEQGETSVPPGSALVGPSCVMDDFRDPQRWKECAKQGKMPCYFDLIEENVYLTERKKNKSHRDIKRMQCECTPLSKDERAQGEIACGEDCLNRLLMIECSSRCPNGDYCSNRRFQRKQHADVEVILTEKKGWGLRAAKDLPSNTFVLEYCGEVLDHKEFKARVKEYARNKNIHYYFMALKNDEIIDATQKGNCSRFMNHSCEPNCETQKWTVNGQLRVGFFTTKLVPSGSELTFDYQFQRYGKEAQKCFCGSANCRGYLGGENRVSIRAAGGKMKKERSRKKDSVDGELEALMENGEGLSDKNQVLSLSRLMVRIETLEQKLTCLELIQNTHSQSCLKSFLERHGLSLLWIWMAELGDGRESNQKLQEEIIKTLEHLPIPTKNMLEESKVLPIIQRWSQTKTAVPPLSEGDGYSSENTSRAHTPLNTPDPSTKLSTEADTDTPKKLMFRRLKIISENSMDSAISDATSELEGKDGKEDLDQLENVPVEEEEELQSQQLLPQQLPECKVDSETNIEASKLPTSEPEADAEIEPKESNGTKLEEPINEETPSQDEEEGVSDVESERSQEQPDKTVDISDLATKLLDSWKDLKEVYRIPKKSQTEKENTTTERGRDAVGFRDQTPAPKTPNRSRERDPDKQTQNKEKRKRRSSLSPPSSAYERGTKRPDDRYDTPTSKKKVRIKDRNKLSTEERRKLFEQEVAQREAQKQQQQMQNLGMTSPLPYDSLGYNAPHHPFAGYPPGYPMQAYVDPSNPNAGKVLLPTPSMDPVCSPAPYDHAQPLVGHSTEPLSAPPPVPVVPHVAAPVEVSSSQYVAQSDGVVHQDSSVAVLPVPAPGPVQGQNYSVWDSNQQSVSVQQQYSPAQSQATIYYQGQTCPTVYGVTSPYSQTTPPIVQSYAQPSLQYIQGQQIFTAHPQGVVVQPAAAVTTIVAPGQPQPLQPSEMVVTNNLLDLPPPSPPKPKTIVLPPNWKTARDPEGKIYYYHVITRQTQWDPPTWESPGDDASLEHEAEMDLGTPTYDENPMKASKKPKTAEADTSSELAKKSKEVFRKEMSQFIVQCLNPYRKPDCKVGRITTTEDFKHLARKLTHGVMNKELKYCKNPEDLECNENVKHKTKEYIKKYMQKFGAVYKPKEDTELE

[6] = molecular target: T1, Serine/threonine-protein kinase DCLK3 (Homo sapiens) (UniProt Q9C098); experiment: Selectivity interaction (KinomeScan (DiscoverX)) EUB0001619a DCLK3; settings: at 1 µM
T1 sequence (whole entry): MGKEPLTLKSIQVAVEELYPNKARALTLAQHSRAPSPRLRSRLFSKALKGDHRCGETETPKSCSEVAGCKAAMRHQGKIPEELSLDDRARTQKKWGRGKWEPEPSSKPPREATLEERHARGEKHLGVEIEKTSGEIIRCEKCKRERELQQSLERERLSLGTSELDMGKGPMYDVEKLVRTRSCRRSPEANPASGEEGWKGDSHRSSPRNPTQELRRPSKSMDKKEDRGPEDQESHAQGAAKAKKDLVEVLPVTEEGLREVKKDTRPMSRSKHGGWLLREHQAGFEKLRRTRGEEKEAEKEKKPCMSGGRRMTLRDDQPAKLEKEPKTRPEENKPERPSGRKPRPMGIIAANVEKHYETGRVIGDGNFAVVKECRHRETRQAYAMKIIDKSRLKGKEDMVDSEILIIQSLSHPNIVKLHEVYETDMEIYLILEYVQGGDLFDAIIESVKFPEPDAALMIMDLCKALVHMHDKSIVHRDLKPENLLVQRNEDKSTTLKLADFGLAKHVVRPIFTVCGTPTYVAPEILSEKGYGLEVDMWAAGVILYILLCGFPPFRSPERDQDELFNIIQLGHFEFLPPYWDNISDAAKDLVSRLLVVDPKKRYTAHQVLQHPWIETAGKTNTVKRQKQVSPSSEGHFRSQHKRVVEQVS

[7] = molecular target: Phosphorylase b kinase gamma catalytic chain, skeletal muscle/heart isoform (Homo sapiens) (UniProt Q16816); experiment: Selectivity interaction (SelectScreen profiling (Invitrogen)) EUB0000607a PHKG1; settings: at 2 µM
[8] = molecular target: T2, Serine/threonine-protein kinase BRSK1 (Homo sapiens) (UniProt Q8TDC3); experiment: Selectivity interaction (KinomeScan (DiscoverX)) EUB0000618a BRSK1; settings: at 10 µM
T2 sequence (whole entry): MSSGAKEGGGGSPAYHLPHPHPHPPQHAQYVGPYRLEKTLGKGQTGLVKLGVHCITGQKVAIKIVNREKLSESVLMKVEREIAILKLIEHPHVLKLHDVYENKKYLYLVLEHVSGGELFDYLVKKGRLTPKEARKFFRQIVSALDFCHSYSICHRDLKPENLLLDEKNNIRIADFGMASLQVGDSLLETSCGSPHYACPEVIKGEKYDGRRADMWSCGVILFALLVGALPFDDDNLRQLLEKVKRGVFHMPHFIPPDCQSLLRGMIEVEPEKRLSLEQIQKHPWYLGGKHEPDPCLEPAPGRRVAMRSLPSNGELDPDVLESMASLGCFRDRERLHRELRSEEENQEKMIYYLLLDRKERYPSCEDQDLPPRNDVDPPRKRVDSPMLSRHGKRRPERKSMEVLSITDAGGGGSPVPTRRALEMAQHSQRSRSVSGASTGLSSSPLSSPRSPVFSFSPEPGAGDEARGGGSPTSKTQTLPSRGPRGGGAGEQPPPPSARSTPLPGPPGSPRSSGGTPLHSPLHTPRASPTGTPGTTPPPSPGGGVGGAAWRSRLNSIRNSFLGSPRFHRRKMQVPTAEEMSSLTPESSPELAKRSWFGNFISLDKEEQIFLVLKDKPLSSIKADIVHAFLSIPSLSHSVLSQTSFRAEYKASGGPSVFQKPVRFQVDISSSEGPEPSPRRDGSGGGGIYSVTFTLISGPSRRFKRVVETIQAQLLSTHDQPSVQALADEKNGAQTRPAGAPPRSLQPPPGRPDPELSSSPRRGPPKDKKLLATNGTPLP

[9] = molecular target: Macrophage-stimulating protein receptor (Homo sapiens, UniProt Q04912); experiment: Selectivity interaction (KinomeScan (DiscoverX)) EUB0000655a MST1R; settings: at 10 µM
Sequence of Macrophage-stimulating protein receptor (Q04912 25-304 limits assumed): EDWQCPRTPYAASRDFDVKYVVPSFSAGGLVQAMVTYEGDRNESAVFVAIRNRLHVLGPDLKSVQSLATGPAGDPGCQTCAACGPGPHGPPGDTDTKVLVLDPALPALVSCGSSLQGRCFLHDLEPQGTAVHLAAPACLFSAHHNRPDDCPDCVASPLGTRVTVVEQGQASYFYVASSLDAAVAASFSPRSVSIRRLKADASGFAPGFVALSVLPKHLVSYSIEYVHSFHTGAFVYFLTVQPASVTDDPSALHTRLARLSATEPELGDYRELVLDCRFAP
Sequence of Macrophage-stimulating protein receptor (Q04912 310-1400 limits assumed): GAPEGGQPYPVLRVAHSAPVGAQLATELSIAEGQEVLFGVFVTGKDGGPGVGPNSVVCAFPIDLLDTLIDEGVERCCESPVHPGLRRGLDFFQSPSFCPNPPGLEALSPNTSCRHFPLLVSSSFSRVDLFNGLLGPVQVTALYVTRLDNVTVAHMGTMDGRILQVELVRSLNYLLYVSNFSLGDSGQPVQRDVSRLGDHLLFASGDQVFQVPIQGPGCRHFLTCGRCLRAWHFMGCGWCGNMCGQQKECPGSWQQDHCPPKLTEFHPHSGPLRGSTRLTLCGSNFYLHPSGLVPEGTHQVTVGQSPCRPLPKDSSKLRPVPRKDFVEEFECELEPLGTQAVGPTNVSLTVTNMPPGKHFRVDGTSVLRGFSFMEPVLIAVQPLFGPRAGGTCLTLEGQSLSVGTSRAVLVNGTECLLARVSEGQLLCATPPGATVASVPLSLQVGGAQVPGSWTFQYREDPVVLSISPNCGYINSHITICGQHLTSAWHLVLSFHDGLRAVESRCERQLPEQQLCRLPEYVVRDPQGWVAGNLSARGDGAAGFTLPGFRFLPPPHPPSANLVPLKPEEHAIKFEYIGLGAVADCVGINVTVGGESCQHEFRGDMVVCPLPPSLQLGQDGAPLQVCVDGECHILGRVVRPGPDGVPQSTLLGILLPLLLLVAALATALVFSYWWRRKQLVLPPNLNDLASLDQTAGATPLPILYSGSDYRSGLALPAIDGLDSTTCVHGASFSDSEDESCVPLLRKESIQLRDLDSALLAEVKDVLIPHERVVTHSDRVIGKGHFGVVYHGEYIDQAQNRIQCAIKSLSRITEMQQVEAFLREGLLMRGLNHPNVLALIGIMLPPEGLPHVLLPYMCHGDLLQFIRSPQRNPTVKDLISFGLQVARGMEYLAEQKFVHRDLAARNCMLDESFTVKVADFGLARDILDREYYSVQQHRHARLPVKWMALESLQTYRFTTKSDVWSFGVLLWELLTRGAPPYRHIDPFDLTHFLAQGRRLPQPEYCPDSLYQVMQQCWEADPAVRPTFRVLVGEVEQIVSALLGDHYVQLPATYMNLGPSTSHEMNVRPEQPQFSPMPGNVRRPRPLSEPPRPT

[10] = molecular target: T3, Serine/threonine-protein kinase D2 (Homo sapiens) (UniProt Q9BZL6); experiment: Selectivity interaction (KinomeScan (DiscoverX)) EUB0000092b PRKD2; settings: at 10 µM
T3 sequence (whole entry): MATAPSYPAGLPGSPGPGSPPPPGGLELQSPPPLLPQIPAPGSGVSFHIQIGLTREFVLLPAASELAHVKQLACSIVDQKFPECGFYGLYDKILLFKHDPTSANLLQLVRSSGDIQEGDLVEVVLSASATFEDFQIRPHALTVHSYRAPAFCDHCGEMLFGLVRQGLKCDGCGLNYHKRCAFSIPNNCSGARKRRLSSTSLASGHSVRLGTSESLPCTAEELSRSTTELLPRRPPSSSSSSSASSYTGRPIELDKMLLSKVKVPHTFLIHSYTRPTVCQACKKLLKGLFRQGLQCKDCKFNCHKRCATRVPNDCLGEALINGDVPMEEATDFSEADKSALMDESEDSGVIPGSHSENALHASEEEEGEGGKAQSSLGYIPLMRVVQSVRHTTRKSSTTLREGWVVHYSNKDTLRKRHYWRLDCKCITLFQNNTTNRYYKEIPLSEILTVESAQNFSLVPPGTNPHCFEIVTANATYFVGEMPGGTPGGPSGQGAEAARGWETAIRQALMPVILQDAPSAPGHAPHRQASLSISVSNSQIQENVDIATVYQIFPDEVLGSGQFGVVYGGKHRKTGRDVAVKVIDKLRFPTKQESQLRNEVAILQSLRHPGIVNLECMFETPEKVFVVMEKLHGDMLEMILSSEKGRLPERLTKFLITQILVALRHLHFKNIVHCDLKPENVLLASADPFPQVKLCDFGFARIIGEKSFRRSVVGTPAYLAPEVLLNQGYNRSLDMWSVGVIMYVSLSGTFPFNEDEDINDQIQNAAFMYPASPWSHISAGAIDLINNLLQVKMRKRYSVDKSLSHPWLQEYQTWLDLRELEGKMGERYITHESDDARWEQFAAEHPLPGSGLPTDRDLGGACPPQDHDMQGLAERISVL

Compound: C=CC(=O)Nc1ccc(C(=O)Nc2[nH]nc3c2CN(C(=O)N[C@H](CN(C)C)c2ccccc2)C3(C)C)cc1
- % of engagement [1]: 95.5%

Compound: O=C(NOC[C@H](O)CO)c1ccc(F)c(F)c1Nc1ccc(I)cc1F
- % of control [2]: 94%
- % of control [3]: 95%

Compound: Cc1cc([C@@H](C)Nc2ccccc2C(=O)O)c2nc(N3CCOCC3)cc(=O)n2c1 [AZD-6482]
- % of control [4]: 94%

Compound: Cc1cc(C)cc([C@@H]2c3cc(C)ccc3NC(=O)CN2C(=O)c2ccc(Br)s2)c1
- % of activity ([5]; at 1 µM): 104%
- % of activity ([5]; at 10 µM): 101%

Compound: N#Cc1cccc(-c2c[nH]c3ncnc(N4CCOCC4)c23)c1
- % of control [6]: 100%

Compound: CNC(=O)Nc1ccc(-c2nc(N3CC4CCC(C3)O4)c3cnn(C4CCC5(CC4)OCCO5)c3n2)cc1
- % of inhibition [7]: 7%

Compound: O[C@H]1CC[C@H](Nc2ncc3nc(Nc4c(F)cc(F)cc4F)n([C@H]4CCOC4)c3n2)CC1
- % of control [8]: 86%

Compound: CN(C)CCOc1ccc(-c2nc(-c3ccncc3)c(-c3ccc4c(c3)CC/C4=N\O)[nH]2)cc1
- % of control [9]: 100%

Compound: CCC(=O)N1CCN(c2ccc(-n3c(=O)ccc4cnc5ccc(-c6cnc7ccccc7c6)cc5c43)cc2C(F)(F)F)CC1
- % of control [10]: 100%
